# Experimental data as given in ChEMBL document CHEMBL1932988, “Synthesis, antimicrobial, anticancer evaluation and QSAR studies of 6-methyl-4-[1-(2-substituted-phenylamino-acetyl)-1H-indol-3-yl]-2-oxo/thioxo-1,2,3,4-tetrahydropyrimidine-5-carboxylic acid ethyl esters” (Eur J Med Chem, 2012).
# Tested on: Aspergillus niger
# Assay: Antifungal activity against Aspergillus niger MTCC 8189 after 7 days by tube dilution method hrs followed by subculturing
# Type: functional
# Conditions: not given
row,SMILES,MFC
1,CCOC(=O)C1=C(C)NC(=S)NC1c1cn(C(=O)CNc2ccccc2Cl)c2ccccc12 (stereo unspecified),>0.1 uM/ml
2,CCOC(=O)C1=C(C)NC(=O)NC1c1cn(C(=O)CNc2cccc([N+](=O)[O-])c2)c2ccccc12 (stereo unspecified),>0.1 uM/ml
3,CCOC(=O)C1=C(C)NC(=O)NC1c1cn(C(=O)CNc2ccc([N+](=O)[O-])cc2)c2ccccc12 (stereo unspecified),>0.1 uM/ml
4,CCOC(=O)C1=C(C)NC(=S)NC1c1cn(C(=O)CNc2ccc(Cl)cc2)c2ccccc12 (stereo unspecified),>0.1 uM/ml

# Tested on: Bacillus subtilis
# Assay: Antibacterial activity against Bacillus subtilis MTCC 2063 after 24 hrs by tube dilution method
# Type: functional
# Conditions: not given
row,SMILES,-logMIC
1,CCOC(=O)C1=C(C)NC(=S)NC1c1cn(C(=O)CNc2ccccc2Cl)c2ccccc12 (stereo unspecified),1.29
2,CCOC(=O)C1=C(C)NC(=O)NC1c1cn(C(=O)CNc2cccc([N+](=O)[O-])c2)c2ccccc12 (stereo unspecified),1.58
3,CCOC(=O)C1=C(C)NC(=O)NC1c1cn(C(=O)CNc2ccc([N+](=O)[O-])cc2)c2ccccc12 (stereo unspecified),1.58
4,CCOC(=O)C1=C(C)NC(=S)NC1c1cn(C(=O)CNc2ccc(Cl)cc2)c2ccccc12 (stereo unspecified),1.59

# Tested on: Staphylococcus aureus
# Assay: Ratio of MIC to MBC for Staphylococcus aureus MTCC 2901
# Type: functional
# Conditions: not given
row,SMILES,Ratio
1,CCOC(=O)C1=C(C)NC(=S)NC1c1cn(C(=O)CNc2ccccc2Cl)c2ccccc12 (stereo unspecified),3
2,CCOC(=O)C1=C(C)NC(=O)NC1c1cn(C(=O)CNc2cccc([N+](=O)[O-])c2)c2ccccc12 (stereo unspecified),3
3,CCOC(=O)C1=C(C)NC(=O)NC1c1cn(C(=O)CNc2ccc([N+](=O)[O-])cc2)c2ccccc12 (stereo unspecified),3
4,CCOC(=O)C1=C(C)NC(=S)NC1c1cn(C(=O)CNc2ccc(Cl)cc2)c2ccccc12 (stereo unspecified),3

# Tested on: Candida albicans
# Assay: Antifungal activity against Candida albicans MTCC 227 after 48 hrs by tube dilution method
# Type: functional
# Conditions: not given
row,SMILES,-logMIC
1,CCOC(=O)C1=C(C)NC(=S)NC1c1cn(C(=O)CNc2ccccc2Cl)c2ccccc12 (stereo unspecified),1.59
2,CCOC(=O)C1=C(C)NC(=O)NC1c1cn(C(=O)CNc2cccc([N+](=O)[O-])c2)c2ccccc12 (stereo unspecified),1.58
3,CCOC(=O)C1=C(C)NC(=O)NC1c1cn(C(=O)CNc2ccc([N+](=O)[O-])cc2)c2ccccc12 (stereo unspecified),1.58
4,CCOC(=O)C1=C(C)NC(=S)NC1c1cn(C(=O)CNc2ccc(Cl)cc2)c2ccccc12 (stereo unspecified),1.59

# Tested on: Escherichia coli
# Assay: Antibacterial activity against Escherichia coli MTCC 1652 after 24 hrs by tube dilution method hrs followed by subculturing
# Type: functional
# Conditions: not given
row,SMILES,MBC
1,CCOC(=O)C1=C(C)NC(=S)NC1c1cn(C(=O)CNc2ccccc2Cl)c2ccccc12 (stereo unspecified),>0.1 uM/ml
2,CCOC(=O)C1=C(C)NC(=O)NC1c1cn(C(=O)CNc2cccc([N+](=O)[O-])c2)c2ccccc12 (stereo unspecified),0.1 uM/ml
3,CCOC(=O)C1=C(C)NC(=O)NC1c1cn(C(=O)CNc2ccc([N+](=O)[O-])cc2)c2ccccc12 (stereo unspecified),0.1 uM/ml
4,CCOC(=O)C1=C(C)NC(=S)NC1c1cn(C(=O)CNc2ccc(Cl)cc2)c2ccccc12 (stereo unspecified),0.05 uM/ml

# Tested on: Bacillus subtilis
# Assay: Antibacterial activity against Bacillus subtilis MTCC 2063 after 24 hrs by tube dilution method hrs followed by subculturing
# Type: functional
# Conditions: not given
row,SMILES,MBC
1,CCOC(=O)C1=C(C)NC(=S)NC1c1cn(C(=O)CNc2ccccc2Cl)c2ccccc12 (stereo unspecified),>0.1 uM/ml
2,CCOC(=O)C1=C(C)NC(=O)NC1c1cn(C(=O)CNc2cccc([N+](=O)[O-])c2)c2ccccc12 (stereo unspecified),>0.1 uM/ml
3,CCOC(=O)C1=C(C)NC(=O)NC1c1cn(C(=O)CNc2ccc([N+](=O)[O-])cc2)c2ccccc12 (stereo unspecified),>0.1 uM/ml
4,CCOC(=O)C1=C(C)NC(=S)NC1c1cn(C(=O)CNc2ccc(Cl)cc2)c2ccccc12 (stereo unspecified),>0.1 uM/ml

# Tested on: Candida albicans
# Assay: Antifungal activity against Candida albicans MTCC 227 after 48 hrs by tube dilution method hrs followed by subculturing
# Type: functional
# Conditions: not given
row,SMILES,MFC
1,CCOC(=O)C1=C(C)NC(=S)NC1c1cn(C(=O)CNc2ccccc2Cl)c2ccccc12 (stereo unspecified),>0.1 uM/ml
2,CCOC(=O)C1=C(C)NC(=O)NC1c1cn(C(=O)CNc2cccc([N+](=O)[O-])c2)c2ccccc12 (stereo unspecified),>0.1 uM/ml
3,CCOC(=O)C1=C(C)NC(=O)NC1c1cn(C(=O)CNc2ccc([N+](=O)[O-])cc2)c2ccccc12 (stereo unspecified),>0.1 uM/ml
4,CCOC(=O)C1=C(C)NC(=S)NC1c1cn(C(=O)CNc2ccc(Cl)cc2)c2ccccc12 (stereo unspecified),>0.1 uM/ml

# Tested on: MCF7
# Assay: cells
# Conditions: Homo sapiens, MCF7, 72 h
# Description: Cytotoxicity against human MCF7 cells after 72 hrs by MTT assay
row,IC50,SMILES
1,> 1000 µg/mL,CCOC(=O)C1=C(C)NC(=O)NC1c1cn(C(=O)CNc2ccc([N+](=O)[O-])cc2)c2ccccc12 (stereo unspecified)
2,80 µg/mL,CCOC(=O)C1=C(C)NC(=S)NC1c1cn(C(=O)CNc2ccc(Cl)cc2)c2ccccc12 (stereo unspecified)

# Tested on: Candida albicans
# Assay: Ratio of MIC to MFC for Candida albicans MTCC 227
# Type: functional
# Conditions: not given
row,SMILES,Ratio
1,CCOC(=O)C1=C(C)NC(=S)NC1c1cn(C(=O)CNc2ccccc2Cl)c2ccccc12 (stereo unspecified),3
2,CCOC(=O)C1=C(C)NC(=O)NC1c1cn(C(=O)CNc2cccc([N+](=O)[O-])c2)c2ccccc12 (stereo unspecified),3
3,CCOC(=O)C1=C(C)NC(=O)NC1c1cn(C(=O)CNc2ccc([N+](=O)[O-])cc2)c2ccccc12 (stereo unspecified),3
4,CCOC(=O)C1=C(C)NC(=S)NC1c1cn(C(=O)CNc2ccc(Cl)cc2)c2ccccc12 (stereo unspecified),3

# Tested on: Aspergillus niger
# Assay: Ratio of MIC to MFC for Aspergillus niger MTCC 8189
# Type: functional
# Conditions: not given
row,SMILES,Ratio
1,CCOC(=O)C1=C(C)NC(=S)NC1c1cn(C(=O)CNc2ccccc2Cl)c2ccccc12 (stereo unspecified),3
2,CCOC(=O)C1=C(C)NC(=O)NC1c1cn(C(=O)CNc2cccc([N+](=O)[O-])c2)c2ccccc12 (stereo unspecified),3
3,CCOC(=O)C1=C(C)NC(=O)NC1c1cn(C(=O)CNc2ccc([N+](=O)[O-])cc2)c2ccccc12 (stereo unspecified),3
4,CCOC(=O)C1=C(C)NC(=S)NC1c1cn(C(=O)CNc2ccc(Cl)cc2)c2ccccc12 (stereo unspecified),3

# Tested on: Aspergillus niger
# Assay: Antifungal activity against Aspergillus niger MTCC 8189 after 7 days by tube dilution method
# Type: functional
# Conditions: not given
row,SMILES,-logMIC
1,CCOC(=O)C1=C(C)NC(=S)NC1c1cn(C(=O)CNc2ccccc2Cl)c2ccccc12 (stereo unspecified),1.59
2,CCOC(=O)C1=C(C)NC(=O)NC1c1cn(C(=O)CNc2cccc([N+](=O)[O-])c2)c2ccccc12 (stereo unspecified),1.58
3,CCOC(=O)C1=C(C)NC(=O)NC1c1cn(C(=O)CNc2ccc([N+](=O)[O-])cc2)c2ccccc12 (stereo unspecified),1.58
4,CCOC(=O)C1=C(C)NC(=S)NC1c1cn(C(=O)CNc2ccc(Cl)cc2)c2ccccc12 (stereo unspecified),1.59

# Tested on: not listed separately
# Assay: Partition coefficient, log P of the compound
# Type: physicochemical
# Conditions: octanol/water
row,logP,SMILES
1,3.44,CCOC(=O)C1=C(C)NC(=S)NC1c1cn(C(=O)CNc2ccccc2Cl)c2ccccc12 (stereo unspecified)
2,1.48,CCOC(=O)C1=C(C)NC(=O)NC1c1cn(C(=O)CNc2cccc([N+](=O)[O-])c2)c2ccccc12 (stereo unspecified)
3,1.48,CCOC(=O)C1=C(C)NC(=O)NC1c1cn(C(=O)CNc2ccc([N+](=O)[O-])cc2)c2ccccc12 (stereo unspecified)
4,3.44,CCOC(=O)C1=C(C)NC(=S)NC1c1cn(C(=O)CNc2ccc(Cl)cc2)c2ccccc12 (stereo unspecified)

# Tested on: Escherichia coli
# Assay: Ratio of MIC to MBC for Escherichia coli MTCC 1652
# Type: functional
# Conditions: not given
row,SMILES,Ratio
1,CCOC(=O)C1=C(C)NC(=S)NC1c1cn(C(=O)CNc2ccccc2Cl)c2ccccc12 (stereo unspecified),3
2,CCOC(=O)C1=C(C)NC(=O)NC1c1cn(C(=O)CNc2cccc([N+](=O)[O-])c2)c2ccccc12 (stereo unspecified),3
3,CCOC(=O)C1=C(C)NC(=O)NC1c1cn(C(=O)CNc2ccc([N+](=O)[O-])cc2)c2ccccc12 (stereo unspecified),3
4,CCOC(=O)C1=C(C)NC(=S)NC1c1cn(C(=O)CNc2ccc(Cl)cc2)c2ccccc12 (stereo unspecified),3

# Tested on: Escherichia coli
# Assay: Antibacterial activity against Escherichia coli MTCC 1652 after 24 hrs by tube dilution method
# Type: functional
# Conditions: not given
row,SMILES,-logMIC
1,CCOC(=O)C1=C(C)NC(=S)NC1c1cn(C(=O)CNc2ccccc2Cl)c2ccccc12 (stereo unspecified),1.59
2,CCOC(=O)C1=C(C)NC(=O)NC1c1cn(C(=O)CNc2cccc([N+](=O)[O-])c2)c2ccccc12 (stereo unspecified),1.88
3,CCOC(=O)C1=C(C)NC(=O)NC1c1cn(C(=O)CNc2ccc([N+](=O)[O-])cc2)c2ccccc12 (stereo unspecified),1.88
4,CCOC(=O)C1=C(C)NC(=S)NC1c1cn(C(=O)CNc2ccc(Cl)cc2)c2ccccc12 (stereo unspecified),2.19

# Tested on: Staphylococcus aureus
# Assay: Antibacterial activity against Staphylococcus aureus MTCC 2901 after 24 hrs by tube dilution method
# Type: functional
# Conditions: not given
row,SMILES,-logMIC
1,CCOC(=O)C1=C(C)NC(=S)NC1c1cn(C(=O)CNc2ccccc2Cl)c2ccccc12 (stereo unspecified),1.29
2,CCOC(=O)C1=C(C)NC(=O)NC1c1cn(C(=O)CNc2cccc([N+](=O)[O-])c2)c2ccccc12 (stereo unspecified),1.88
3,CCOC(=O)C1=C(C)NC(=O)NC1c1cn(C(=O)CNc2ccc([N+](=O)[O-])cc2)c2ccccc12 (stereo unspecified),1.88
4,CCOC(=O)C1=C(C)NC(=S)NC1c1cn(C(=O)CNc2ccc(Cl)cc2)c2ccccc12 (stereo unspecified),1.59

# Tested on: Staphylococcus aureus
# Assay: Antibacterial activity against Staphylococcus aureus MTCC 2901 after 24 hrs followed by subculturing
# Type: functional
# Conditions: not given
row,SMILES,MBC
1,CCOC(=O)C1=C(C)NC(=S)NC1c1cn(C(=O)CNc2ccccc2Cl)c2ccccc12 (stereo unspecified),>0.1 uM/ml
2,CCOC(=O)C1=C(C)NC(=O)NC1c1cn(C(=O)CNc2cccc([N+](=O)[O-])c2)c2ccccc12 (stereo unspecified),0.1 uM/ml
3,CCOC(=O)C1=C(C)NC(=O)NC1c1cn(C(=O)CNc2ccc([N+](=O)[O-])cc2)c2ccccc12 (stereo unspecified),0.1 uM/ml
4,CCOC(=O)C1=C(C)NC(=S)NC1c1cn(C(=O)CNc2ccc(Cl)cc2)c2ccccc12 (stereo unspecified),>0.1 uM/ml

# Tested on: Bacillus subtilis
# Assay: Ratio of MIC to MBC for Bacillus subtilis MTCC 2063
# Type: functional
# Conditions: not given
row,SMILES,Ratio
1,CCOC(=O)C1=C(C)NC(=S)NC1c1cn(C(=O)CNc2ccccc2Cl)c2ccccc12 (stereo unspecified),3
2,CCOC(=O)C1=C(C)NC(=O)NC1c1cn(C(=O)CNc2cccc([N+](=O)[O-])c2)c2ccccc12 (stereo unspecified),3
3,CCOC(=O)C1=C(C)NC(=O)NC1c1cn(C(=O)CNc2ccc([N+](=O)[O-])cc2)c2ccccc12 (stereo unspecified),3
4,CCOC(=O)C1=C(C)NC(=S)NC1c1cn(C(=O)CNc2ccc(Cl)cc2)c2ccccc12 (stereo unspecified),3
